Each structure is given as a SMILES string. Structures can show the parent of a compound that is named as a salt. Where two headings read alike, the source gives them in different places.

This note sets out measurements from patent US4605744A, “Imidazole derivatives” (Hoffmann-La Roche Inc., priority 1985, dated 1986).

For one experiment, the system named is K. pneumoniae 8357. As to the kind of experiment: animal or person. Conditions: Klebsiella pneumoniae, 8357, sc, read-out: PD50. Type of experiment: in vivo.
The next experiment deals with S. marcescens S3. As to the kind of experiment: In vivo antibacterial activity (PD50). The note with it: Serratia marcescens, S3, sc, read-out: PD50.
A further experiment concerns C. freundii 8ASM. In words: In vivo antibacterial activity (PD50). Conditions: Citrobacter freundii, sc, challenge 1000 LD50s, 1 treatment, Table 11.
The next experiment relates to S. pyogenes 503-782. In words: In vivo antibacterial activity (PD50). Conditions: Streptococcus pyogenes, 503782; sc; Table 9.
For a further experiment, the system named is S. marcescens S5. In words: In vivo antibacterial activity (PD50). Conditions: Serratia marcescens, sc, Table 9.
Another experiment relates to P. aeruginosa POW151. As to the kind of experiment: In vivo antibacterial activity (PD50). Conditions: Pseudomonas aeruginosa, sc, Table 9.
The next experiment relates to S. schottmuelleri. In words: In vivo antibacterial activity (PD50). The note with it: sc; challenge 163 LD50s; 1 treatment; Table 11. On the procedure: (§1) In Tables 9-14, the results of the in vivo activity against certain microorganisms of compounds I, M and N as given. […] The results in these Tables and the PD50 's were determined by the procedure set forth on page 160 in Beskid et al., Antimicrobial Agents and Chemotherapy, Vol. 20, No. 2 pp. 159-167 (Aug. 1981) for "in vivo studies".

Another experiment has as its system E. cloacae 214. As to the kind of experiment: In vivo antibacterial activity (PD50). The note with it: Enterobacter cloacae, sc, challenge 3.8 LD50s, 2 treatments, Table 11. On the procedure:
as §1

The subject of another experiment is E. aerogenes 83. As to the kind of experiment: In vivo antibacterial activity (PD50). Conditions: Klebsiella aerogenes, sc, Table 9.
The test system of another experiment is E. coli 5152. In words: In vivo antibacterial activity (PD50). The note with it: Escherichia coli, 5152, sc.
In the next experiment the test system is E. coli 387-1. In words: In vivo antibacterial activity (PD50). Conditions: Escherichia coli, 3871; sc; challenge 127 LD50s; 1 treatment; Table 11.
For the next experiment, the system named is S. pneumoniae SC. In words: In vivo antibacterial activity (PD50). The note with it: Streptococcus pneumoniae.
The next experiment concerns P. mirabilis 190. As to the kind of experiment: In vivo antibacterial activity (PD50). The note with it: Proteus mirabilis, sc, challenge 10^4 LD50s, 1 treatment, Table 11.
The subject of a further experiment is S. pneumoniae 6301. In words: In vivo antibacterial activity (PD50). Conditions: Streptococcus pneumoniae, sc, Table 9.
The test system of a further experiment is S. aureus Giorgio. In words: In vivo antibacterial activity (PD50). Conditions: Staphylococcus aureus; sc; Table 9.
The next experiment deals with P. vulgaris 100. As to the kind of experiment: In vivo antibacterial activity (PD50). Conditions: Proteus vulgaris; sc; challenge 100 LD50s; 1 treatment; Table 11.
In another experiment the test system is E. coli 4. In words: In vivo antibacterial activity (PD50). The note with it: Escherichia coli, sc, Table 9.
The test system of the next experiment is K. pneumoniae 39. As to the kind of experiment: In vivo activity alone and in combination (PD50, FIC). Conditions: Klebsiella pneumoniae, 39, sc, alone. The procedure:
as §1
(§2) In the Tables, the fractional inhibitory concentration index (FIC) for synergistic combination of a compound of this invention (X) with known antibiotic compound (Y) is determined by the following formula:
(§3) FIC=(PD50 (X combination)/PD50 (X alone)+(PD50 (Y
(§4) combination)/PD50 (Y alone)
(§5) An FIC of ≤0.60 is indicative of synergy. The synergy rating in the Tables is as follows:
(§6) In the combination, the parts are parts by weight, i.e. 10 to 1 is 10 parts by weight to 1 part by weight.

The subject of the next experiment is E. coli 736. The description is as above. The note with it: Escherichia coli, sc, alone. On the procedure: as §1, §2, §3, §4, §5, §6
A further experiment concerns E. coli BC5524. The experiment is described as above. Conditions: Escherichia coli, BC5524; sc; alone; read-out: PD50 (alone). On the procedure: as §1, §2, §3, §4, §5, §6
The test system of a further experiment is K. pneumoniae R2296. Described as above. Conditions: Klebsiella pneumoniae, sc, alone. The procedure:
as §1, §2, §3, §4, §5, §6

The test system of another experiment is K. pneumoniae 503-990A. The description is as above. The note with it: Klebsiella pneumoniae, 503990A, sc, alone. On the procedure: as §1, §2, §3, §4, §5, §6
The next experiment has as its system E. cloacae 4633. The description is as above. Conditions: Enterobacter cloacae, 4633; sc; alone; read-out: PD50 (alone). The procedure: as §1, §2, §3, §4, §5, §6
Setting [1] is: challenge 2717 LD50s, 2 treatments, Table 10.
The mark [2] stands for this setting: challenge 4780 LD50s, 2 treatments, Table 11.

Take `CC1(C)S[C@@H]2[C@H](/N=C/N3CCCCCC3)C(=O)N2[C@H]1C(=O)O` [Amdinocillin, amdinocillin, reference compound]: the ED50 was 6.7 mg/kg with K. pneumoniae 8357; 2.7 mg/kg in the experiment on S. marcescens S3; 0.76 mg/kg in the experiment on C. freundii 8ASM; 80 mg/kg in the experiment on S. pyogenes 503-782; greater than 250 mg/kg in the experiment with S. marcescens S5; 143 mg/kg with P. aeruginosa POW151. In addition, the ED50 was 0.25 mg/kg in the experiment with S. schottmuelleri; less than 10 mg/kg with E. cloacae 214; greater than 250 mg/kg with E. aerogenes 83; greater than 250 mg/kg with E. coli 5152 (Table 9); 84 mg/kg in the experiment on E. coli 5152 (setting [1]); 150 mg/kg with E. coli 5152 (setting [2]). Moreover, the ED50 in the experiment on E. coli 387-1 is less than 0.2 mg/kg; with S. pneumoniae SC (Table 9, read-out: PD50) it was less than 2 mg/kg; with P. mirabilis 190 it was 117 mg/kg; with S. pneumoniae 6301 it was 192 mg/kg; in the experiment with S. aureus Giorgio it was greater than 250 mg/kg; in the experiment with P. vulgaris 100, 45 mg/kg. The molecule further showed an ED50 with E. coli 4 of 4.6 mg/kg.

On to `CC1(C)S[C@@H]2[C@H](N=CN3CCC(CCCn4ccnc4N)CC3)C(=O)N2[C@H]1C(=O)O` [I, [2S-(2alpha,5alpha,6beta)]-6-[[[4-[3-(2-amino-1H-imidazol-1-yl)propyl]piperidinyl]methylene]amino]-3,3-dimethyl-7-oxo-4-thia-1-azabicyclo[3.2.0]hpetane-2-carboxylic acid hydrochloride], for which the ED50 is 59 mg/kg in the experiment on S. pyogenes 503-782; greater than 250 mg/kg in the experiment on S. marcescens S5; 111 mg/kg with P. aeruginosa POW151; greater than 250 mg/kg with E. aerogenes 83; greater than 250 mg/kg in the experiment on E. coli 5152 (Table 9); 115 mg/kg in the experiment on K. pneumoniae 39. In addition, the ED50 is 0.05 mg/kg in the experiment with E. coli 736; greater than 250 mg/kg in the experiment with E. coli BC5524; greater than 250 mg/kg in the experiment with K. pneumoniae R2296; less than 2 mg/kg in the experiment on K. pneumoniae 503-990A (Table 14 line (1)); less than 2 mg/kg in the experiment with K. pneumoniae 503-990A (Table 14 line (2)); 6.4 mg/kg in the experiment on E. cloacae 4633. The ED50 was 3.6 mg/kg in the experiment on S. pneumoniae SC (read-out: PD50), greater than 250 mg/kg with S. pneumoniae 6301, greater than 250 mg/kg with S. aureus Giorgio and 1.9 mg/kg with E. coli 4.

`CC1(C)S[C@@H]2[C@H](N=CN3CCC(CC4=NCCN4)CC3)C(=O)N2[C@H]1C(=O)O` [M, [2S-(2alpha,5alpha,6beta)]-6-[[[4-[(4,5-dihydro-1H-imidazol-2-yl)methyl]-1-piperidinyl]methylene]amino]-3,3-dimethyl-7-oxo-4-thia-1-azabicyclo[3.2.0]heptane-2-carboxylic acid hydrochloride]: the ED50 was 134 mg/kg with E. coli 5152 (setting [1]); 5 mg/kg in the experiment on K. pneumoniae 39; 80 mg/kg in the experiment on E. coli BC5524; greater than 250 mg/kg with K. pneumoniae R2296; 9.4 mg/kg in the experiment with K. pneumoniae 503-990A; 34 mg/kg in the experiment with E. cloacae 4633.

Consider `CC1(C)S[C@@H]2[C@H](N=CN3CCC(CCC4=NCCN4)CC3)C(=O)N2[C@H]1C(=O)O` [N, [2S-(2alpha,5alpha,6beta)]-6-[[[4-[4,5-dihydro-1H-imidazol-2-yl)ethyl]-1-piperidinyl]methylene]amino]-3,3-dimethyl-7-oxo-4-thia-1-azabicyclo[3.2.0]heptane-2-carboxylic acid hydrochloride], for which the ED50 in the experiment with K. pneumoniae 8357 is 6.2 mg/kg; in the experiment on S. marcescens S3, less than 0.5 mg/kg; with C. freundii 8ASM it was 0.22 mg/kg; with S. schottmuelleri, less than 0.05 mg/kg; with E. cloacae 214, less than 10 mg/kg; in the experiment with E. coli 5152 (setting [2]), 30 mg/kg. The ED50 is less than 0.2 mg/kg in the experiment with E. coli 387-1; 18 mg/kg in the experiment with K. pneumoniae 39; 114 mg/kg in the experiment on E. coli BC5524; greater than 250 mg/kg with K. pneumoniae R2296; 5.5 mg/kg in the experiment on K. pneumoniae 503-990A; 12 mg/kg in the experiment with E. cloacae 4633. The ED50 in the experiment on P. mirabilis 190 turned out to be 140 mg/kg; in the experiment on P. vulgaris 100 it was 67 mg/kg.
